According to patent US20240116985A1, “STAPLED PEPTIDES AND METHODS THEREOF” (priority 2020, published 2024):
Values after ≈ are worked out from the molar mass of the structure shown. Read-outs that look alike come from different tables or passages of the source.

Key:
[1] = biological target: T1, full-length beta-Catenin (Uniprot ID P35222) (Homo sapiens, UniProt P35222); assay: Fluorescence polarization IC50 (beta-catenin / 5FAM-TCF4 10-53 competition); format: binding
T1 construct: 10 nM full-length beta-Catenin (Uniprot ID P35222)
T1 sequence (P35222 1-781): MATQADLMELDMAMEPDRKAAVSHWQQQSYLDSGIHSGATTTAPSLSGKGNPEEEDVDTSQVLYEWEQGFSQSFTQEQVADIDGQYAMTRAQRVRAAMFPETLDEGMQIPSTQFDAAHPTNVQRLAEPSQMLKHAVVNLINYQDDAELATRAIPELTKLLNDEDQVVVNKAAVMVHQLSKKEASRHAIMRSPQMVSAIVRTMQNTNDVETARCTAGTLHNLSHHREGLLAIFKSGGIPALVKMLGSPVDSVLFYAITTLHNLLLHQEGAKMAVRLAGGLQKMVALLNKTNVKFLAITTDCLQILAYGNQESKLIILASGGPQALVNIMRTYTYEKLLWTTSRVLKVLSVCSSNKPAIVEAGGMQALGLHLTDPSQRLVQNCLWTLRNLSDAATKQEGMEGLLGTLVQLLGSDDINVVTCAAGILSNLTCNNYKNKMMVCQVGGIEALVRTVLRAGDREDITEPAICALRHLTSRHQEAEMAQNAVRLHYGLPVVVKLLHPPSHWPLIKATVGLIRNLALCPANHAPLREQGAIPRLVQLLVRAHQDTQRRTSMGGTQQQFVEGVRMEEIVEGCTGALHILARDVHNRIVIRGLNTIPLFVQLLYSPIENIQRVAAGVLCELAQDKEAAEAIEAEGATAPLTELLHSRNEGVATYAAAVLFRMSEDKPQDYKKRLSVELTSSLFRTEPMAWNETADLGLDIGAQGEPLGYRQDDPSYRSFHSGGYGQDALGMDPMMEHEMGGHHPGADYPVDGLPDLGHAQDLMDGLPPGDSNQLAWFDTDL

Solubility in PBS = format: physicochemical
Outline: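 HPLC quantitation of peptide remaining in the PBS supernatant after ultracentrifugation, referenced to a 50 μM solution in DMSO.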

CHI Log D procedure = format: physicochemical; details: for CHI Log D: pH 7.4
[2] = fluorescence polarization, read-out: beta-Catenin FP IC50

SMILES | IC50 ([1]; read-out: FP EC50) [nM] | IC50 ([1]; read-out: beta-Catenin FP IC50, fluorescence polarization) [nM] | Solubility (Solubility in PBS) [µM] | CHI Log D (CHI Log D procedure) | IC50 [1, 2] [nM] | chromatographic logD (CHI Log D procedure; pH 7.4, CHI Log D) | IC50 ([1]; read-out: bCat FP IC50) [nM] | Solubility (Solubility in PBS; Solubility (uM)) [µM] | chromatographic logD (CHI Log D procedure; pH 7.4, LogD)
CC[C@H](C)[C@@H]1NC(=O)[C@H](CC(=O)O)NC(=O)[C@]2(CC=CCCCC3(CCCC=CCCCCCC[C@@](C)(C(=O)N[C@@H](Cc4ccccc4)C(=O)N[C@@H](Cc4csc5ccccc45)C(=O)N[C@@H](CCC(N)=O)C(N)=O)NC(=O)[C@H](CCC(N)=O)NC(=O)[C@H](Cc4ccccc4)NC(=O)[C@H](C)NC(=O)[C@H](C)NC(=O)[C@H](CCC(=O)O)NC(=O)[C@H](CC(=O)O)NC3=O)NC1=O)CCCN2C(=O)Cc1ccccc1 (stereo partly drawn) [I-601, Bnc-PL3-Asp-Ile-B5-Asp-Glu-Ala-Ala-Phe-Gln-S8-Phe-BztA-Gln-NH2] | 419 | 419 | 43 (≈ 84.2 µg/mL) | 2.748 |  |  |  |  | 
CC[C@H](C)[C@@H]1NC(=O)[C@H](CC(=O)O)NC(=O)[C@]2(CC=CCCCC3(CCCC=CCCCCCC[C@@](C)(C(=O)N[C@@H](Cc4ccccc4)C(=O)N[C@@H](Cc4csc5ccccc45)C(=O)N[C@@H](CCC(N)=O)C(N)=O)NC(=O)[C@H](CCC(N)=O)NC(=O)[C@H](Cc4ccccc4)NC(=O)[C@H](C)NC(=O)[C@H](C)NC(=O)[C@H](CCC(N)=O)NC(=O)[C@H](CC(=O)O)NC3=O)NC1=O)CCCN2C(C)=O (stereo partly drawn) [I-603, Ac-PL3-Asp-Ile-B5-Asp-Gln-Ala-Ala-Phe-Gln-S8-Phe-BztA-Gln-NH2] |  |  | 10 (≈ 18.8 µg/mL) |  | 392 | 2.62 |  |  | 
CC[C@H](C)[C@@H]1NC(=O)[C@H](CC(=O)O)NC(=O)[C@]2(CC=CCCCC3(CCCC=CCCCCCC[C@@](C)(C(=O)N[C@@H](Cc4ccccc4)C(=O)N[C@@H](Cc4csc5ccccc45)C(=O)N[C@@H](CCC(N)=O)C(N)=O)NC(=O)[C@H](CCC(N)=O)NC(=O)[C@H](Cc4ccccc4)NC(=O)[C@H](C)NC(=O)[C@H](C)NC(=O)[C@H](CCCNC(N)=O)NC(=O)[C@H](CC(=O)O)NC3=O)NC1=O)CCCN2C(C)=O (stereo partly drawn) [I-604, Ac-PL3-Asp-Ile-B5-Asp-Cit-Ala-Ala-Phe-Gln-S8-Phe-BztA-Gln-NH2] | 692 |  | 10 (≈ 19.1 µg/mL) | 2.609 | 692 |  |  |  | 
CC[C@H](C)[C@@H]1NC(=O)[C@H](CC(=O)O)NC(=O)[C@]2(CC=CCCCC3(CCCC=CCCCCCC[C@@](C)(C(=O)N[C@@H](Cc4ccccc4)C(=O)N[C@@H](Cc4csc5ccccc45)C(=O)N[C@@H](CCC(N)=O)C(N)=O)NC(=O)[C@H](CCC(N)=O)NC(=O)[C@H](Cc4ccccc4)NC(=O)[C@H](C)NC(=O)[C@H](C)NC(=O)[C@H](CCCNC(N)=O)NC(=O)[C@H](CC(=O)O)NC3=O)NC1=O)CCCN2C(C)=O (stereo partly drawn) [I-605, Ac-PL3-Asp-Ile-B5-Asp-Cit-Ala-Ala-Phe-Gln-S8-Phe-BztA-Gln-NH2] | 632 |  | 10 (≈ 19.1 µg/mL) | 2.617 | 632 |  |  |  | 
CC[C@H](C)[C@@H]1NC(=O)[C@H](CC(=O)O)NC(=O)[C@]2(CC=CCCCC3(CCCC=CCCCCCC[C@@](C)(C(=O)N[C@@H](Cc4ccccc4)C(=O)N[C@@H](Cc4csc5ccccc45)C(=O)N[C@@H](CCC(N)=O)C(N)=O)NC(=O)[C@H](CCC(N)=O)NC(=O)[C@H](Cc4ccccc4)NC(=O)[C@H](C)NC(=O)[C@H](C)NC(=O)[C@H](Cc4ccc(C(=O)O)cc4)NC(=O)[C@H](CC(=O)O)NC3=O)NC1=O)CCCN2C(C)=O (stereo partly drawn) [I-606, Ac-PL3-Asp-Ile-B5-Asp-4COOHF-Ala-Ala-Phe-Gln-S8-Phe-BztA-Gln-NH2] | 289 |  | 49 (≈ 95.3 µg/mL) | 2.412 | 289 |  |  |  | 
CC[C@H](C)[C@@H]1NC(=O)[C@H](CC(=O)O)NC(=O)[C@]2(CC=CCCCC3(CCCC=CCCCCCC[C@@](C)(C(=O)N[C@@H](Cc4ccccc4)C(=O)N[C@@H](Cc4csc5ccccc45)C(=O)N[C@@H](CCC(N)=O)C(N)=O)NC(=O)[C@H](CCC(N)=O)NC(=O)[C@H](Cc4ccccc4)NC(=O)[C@H](C)NC(=O)[C@H](C)NC(=O)[C@H](Cc4ccc(C(=O)O)cc4)NC(=O)[C@H](CC(=O)O)NC3=O)NC1=O)CCCN2C(C)=O (stereo partly drawn) [I-607, Ac-PL3-Asp-Ile-B5-Asp-4COOHF-Ala-Ala-Phe-Gln-S8-Phe-BztA-Gln-NH2] | 253 |  | 48 (≈ 93.4 µg/mL) | 2.416 | 253 |  |  |  | 
CC[C@H](C)[C@@H]1NC(=O)[C@H](CC(=O)O)NC(=O)[C@]2(CC=CCCCC3(CCCC=CCCCCCC[C@@](C)(C(=O)N[C@@H](Cc4ccccc4)C(=O)N[C@@H](Cc4csc5ccccc45)C(=O)N[C@@H](CCC(N)=O)C(N)=O)NC(=O)[C@H](CCC(N)=O)NC(=O)[C@H](Cc4ccccc4)NC(=O)[C@H](C)NC(=O)[C@H](C)NC(=O)[C@H](CCCC(=O)O)NC(=O)[C@H](CC(=O)O)NC3=O)NC1=O)CCCN2C(C)=O (stereo partly drawn) [I-612, Ac-PL3-Asp-Ile-B5-Asp-Aad-Ala-Ala-Phe-Gln-S8-Phe-BztA-Gln-NH2] |  |  | 49 (≈ 93 µg/mL) |  |  | 2.41 | 64 | > 25 | 2.4
CC[C@H](C)[C@@H]1NC(=O)[C@H](CC(=O)O)NC(=O)[C@]2(CC=CCCCC3(CCCC=CCCCCCC[C@@](C)(C(=O)N[C@@H](Cc4ccccc4)C(=O)N[C@@H](Cc4csc5ccccc45)C(=O)N[C@@H](CCC(N)=O)C(N)=O)NC(=O)[C@H](CCC(N)=O)NC(=O)[C@H](Cc4ccccc4)NC(=O)[C@H](C)NC(=O)[C@H](C)NC(=O)[C@H](CCCNC(=N)N)NC(=O)[C@H](CC(=O)O)NC3=O)NC1=O)CCCN2C(C)=O (stereo partly drawn) [I-613, Ac-PL3-Asp-Ile-B5-Asp-Arg-Ala-Ala-Phe-Gln-S8-Phe-BztA-Gln-NH2] | 1630 |  | 10 (≈ 19.1 µg/mL) | 2.781 | 1630 |  |  |  | 
CC[C@H](C)[C@@H]1NC(=O)[C@H](CC(=O)O)NC(=O)[C@]2(CC=CCCCC3(CCCC=CCCCCCC[C@@](C)(C(=O)N[C@@H](Cc4ccccc4)C(=O)N[C@@H](Cc4csc5ccccc45)C(=O)N[C@@H](CCC(N)=O)C(N)=O)NC(=O)[C@H](CCC(N)=O)NC(=O)[C@H](Cc4ccccc4)NC(=O)[C@H](C)NC(=O)[C@H](C)NC(=O)[C@H](CCCNC(=N)N)NC(=O)[C@H](CC(=O)O)NC3=O)NC1=O)CCCN2C(C)=O (stereo partly drawn) [I-614, Ac-PL3-Asp-Ile-B5-Asp-Arg-Ala-Ala-Phe-Gln-S8-Phe-BztA-Gln-NH2] | 1140 |  | 10 (≈ 19.1 µg/mL) | 2.801 | 1140 |  |  |  | 
CC(=O)N1CCC[C@]12CC=CCCCC1(CCCC=CCCCCCC[C@@](C)(C(=O)N[C@@H](Cc3ccccc3)C(=O)N[C@@H](Cc3csc4ccccc34)C(=O)N[C@@H](Cc3c[nH]cn3)C(N)=O)NC(=O)[C@H](CC(N)=O)NC(=O)[C@H](Cc3ccccc3)NC(=O)[C@H](C)NC(=O)[C@H](C)NC(=O)[C@H](CCC(=O)O)NC(=O)[C@H](CC(=O)O)NC1=O)NC(=O)[C@H](CC1CCCCC1)NC(=O)[C@H](CC(=O)O)NC2=O (stereo partly drawn) [I-615, Ac-PL3-Asp-Cha-B5-Asp-Glu-Ala-Ala-Phe-Asn-S8-Phe-BztA-His-NH2] |  |  | 10 (≈ 19.2 µg/mL) |  | 50 | 2.83 |  |  | 
CC(=O)N1CCC[C@]12CC=CCCCC1(CCCC=CCCCCCC[C@@](C)(C(=O)N[C@@H](Cc3ccccc3)C(=O)N[C@@H](Cc3csc4ccccc34)C(=O)N[C@@H](Cc3c[nH]cn3)C(N)=O)NC(=O)[C@H](CCCNC(N)=O)NC(=O)[C@H](Cc3ccccc3)NC(=O)[C@H](C)NC(=O)[C@H](C)NC(=O)[C@H](CCC(=O)O)NC(=O)[C@H](CC(=O)O)NC1=O)NC(=O)[C@H](CC(C)C)NC(=O)[C@H](CC(=O)O)NC2=O (stereo partly drawn) [I-616, Ac-PL3-Asp-Leu-B5-Asp-Glu-Ala-Ala-Phe-Cit-S8-Phe-BztA-His-NH2] |  |  | 10 (≈ 19.2 µg/mL) |  | 108 | 2.41 |  |  | 
CC(=O)N1CCC[C@]12CC=CCCCC1(CCCC=CCCCCCC[C@@](C)(C(=O)N[C@@H](Cc3ccccc3)C(=O)N[C@@H](Cc3csc4ccccc34)C(=O)N[C@@H](Cc3c[nH]cn3)C(N)=O)NC(=O)[C@H]([C@@H](C)O)NC(=O)[C@H](Cc3ccccc3)NC(=O)[C@H](C)NC(=O)[C@H](C)NC(=O)[C@H](CCC(=O)O)NC(=O)[C@H](CC(=O)O)NC1=O)NC(=O)[C@H](CC(C)C)NC(=O)[C@H](CC(=O)O)NC2=O (stereo partly drawn) [I-617, Ac-PL3-Asp-Leu-B5-Asp-Glu-Ala-Ala-Phe-Thr-S8-Phe-BztA-His-NH2] | 253 |  | 10 (≈ 18.7 µg/mL) | 2.549 | 253 |  |  |  | 
